Assay [1] concerns the target T1, Neuronal acetylcholine receptor; alpha3/beta4 (Homo sapiens, UniProt P30926+P32297). As to the kind of experiment: Reversible inhibition of human alpha3beta4 nAChR expressed in CHO cells assessed as inhibition of acetylcholine-induced response at 1 uM measured after compound washout by electrophysiological method. It is filed as cell-based.
Assay [2] has as its target T1, Neuronal acetylcholine receptor; alpha3/beta4. Briefly: Non-competitive antagonist activity at human alpha3beta4 nAChR expressed in CHO cells assessed as inhibition of nicotine-induced calcium influx incubated for 30 mins prior to nicotine-induction by calcium-4 based FLIPR analysis. The class given is cell-based.
The target is the same in assay [3]. Briefly: Agonist activity at human alpha3beta4 nAChR expressed in CHO cells at 10 uM by electrophysiological analysis relative to acetylcholine. It is filed as cell-based.
Assay [4] has the same target. Briefly: Agonist activity at human alpha3beta4 nAChR expressed in CHO cells at 1 uM by electrophysiological analysis relative to acetylcholine. The class given is cell-based.
Assay [5] has the same target. As to the kind of experiment: Agonist activity at human alpha3beta4 nAChR expressed in CHO cells at 0.1 uM by electrophysiological analysis relative to acetylcholine. It is filed as cell-based.
Assay [6] shares this target. As to the kind of experiment: Displacement of [3H]epibatidine from human alpha3beta4 nAChR expressed in CHO cells after 2 hrs by liquid scintillation counting. The class given is cell-based. (In general: Displacement assays read how much labelled ligand stays bound in the presence of the test substance.)
The target is the same in assay [7]. As to the kind of experiment: Inhibition of human alpha3beta4 nAChR expressed in CHO cells assessed as inhibition of calcium influx by calcium-4 based FLIPR analysis. The class given is cell-based.
Assay [8] shares this target. Briefly: Agonist activity at human alpha3beta4 nAChR expressed in CHO cells assessed as calcium influx by calcium-4 based FLIPR analysis relative to nicotine. The class given is cell-based.
For assay [9] the target is unchanged. As to the kind of experiment: Agonist activity at human alpha3beta4 nAChR expressed in CHO cells assessed as calcium influx by calcium-4 based FLIPR analysis. The class given is cell-based.
Assay [10] addresses T2, Muscarinic acetylcholine receptor M2 (Rattus norvegicus, UniProt P10980).
T2 sequence (P10980 whole entry): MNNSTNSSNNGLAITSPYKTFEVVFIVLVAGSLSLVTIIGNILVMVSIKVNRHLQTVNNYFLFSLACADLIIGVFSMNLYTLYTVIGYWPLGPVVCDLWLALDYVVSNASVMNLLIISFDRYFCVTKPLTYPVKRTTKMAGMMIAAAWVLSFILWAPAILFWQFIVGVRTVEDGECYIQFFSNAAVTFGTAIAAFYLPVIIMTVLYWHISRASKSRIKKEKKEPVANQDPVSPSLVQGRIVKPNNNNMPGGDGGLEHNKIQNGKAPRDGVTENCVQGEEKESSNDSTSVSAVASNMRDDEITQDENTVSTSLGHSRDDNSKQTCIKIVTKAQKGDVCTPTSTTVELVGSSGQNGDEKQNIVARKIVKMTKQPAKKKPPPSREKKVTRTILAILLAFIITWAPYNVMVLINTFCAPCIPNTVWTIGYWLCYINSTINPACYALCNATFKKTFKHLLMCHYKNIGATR
As to the kind of experiment: Antagonist activity at rat muscarinic M2 receptor isolated from brain.

For assay [11], the target named is T3, Muscarinic acetylcholine receptor M1 (Rattus norvegicus, UniProt P08482).
T3 sequence (P08482 whole entry): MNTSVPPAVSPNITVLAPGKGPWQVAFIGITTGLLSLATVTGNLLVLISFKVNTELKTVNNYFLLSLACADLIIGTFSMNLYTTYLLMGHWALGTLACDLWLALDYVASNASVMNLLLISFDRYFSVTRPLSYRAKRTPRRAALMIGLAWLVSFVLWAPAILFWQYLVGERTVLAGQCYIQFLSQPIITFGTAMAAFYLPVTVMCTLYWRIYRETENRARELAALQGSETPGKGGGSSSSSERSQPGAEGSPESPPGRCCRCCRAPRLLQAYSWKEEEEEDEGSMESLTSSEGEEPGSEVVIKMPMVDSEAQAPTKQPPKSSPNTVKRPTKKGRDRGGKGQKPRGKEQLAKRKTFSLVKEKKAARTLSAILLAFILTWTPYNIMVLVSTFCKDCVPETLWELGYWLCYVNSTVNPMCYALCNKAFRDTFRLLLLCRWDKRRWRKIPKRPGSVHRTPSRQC
As to the kind of experiment: Antagonist activity at rat muscarinic M1 receptor isolated from brain.

Molecules are shown by their SMILES. Calls of active or inactive are those of the source. No cut-off for these calls is given here. Bounds are passed on as bounds.

T1 sequence (P30926 whole entry): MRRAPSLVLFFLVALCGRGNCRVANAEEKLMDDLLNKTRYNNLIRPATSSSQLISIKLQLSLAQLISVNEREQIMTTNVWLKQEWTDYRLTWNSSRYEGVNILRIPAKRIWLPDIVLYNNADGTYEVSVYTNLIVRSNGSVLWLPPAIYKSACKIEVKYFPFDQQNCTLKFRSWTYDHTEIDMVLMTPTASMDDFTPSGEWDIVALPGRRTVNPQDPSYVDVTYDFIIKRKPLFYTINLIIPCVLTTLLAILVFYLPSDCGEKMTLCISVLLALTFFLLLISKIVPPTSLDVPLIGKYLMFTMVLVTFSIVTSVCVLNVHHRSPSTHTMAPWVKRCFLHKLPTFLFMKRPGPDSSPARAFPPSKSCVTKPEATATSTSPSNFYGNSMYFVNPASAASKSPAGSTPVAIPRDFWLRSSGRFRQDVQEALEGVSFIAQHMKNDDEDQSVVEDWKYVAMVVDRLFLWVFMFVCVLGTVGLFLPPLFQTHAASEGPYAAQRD
T1 sequence (P32297 whole entry): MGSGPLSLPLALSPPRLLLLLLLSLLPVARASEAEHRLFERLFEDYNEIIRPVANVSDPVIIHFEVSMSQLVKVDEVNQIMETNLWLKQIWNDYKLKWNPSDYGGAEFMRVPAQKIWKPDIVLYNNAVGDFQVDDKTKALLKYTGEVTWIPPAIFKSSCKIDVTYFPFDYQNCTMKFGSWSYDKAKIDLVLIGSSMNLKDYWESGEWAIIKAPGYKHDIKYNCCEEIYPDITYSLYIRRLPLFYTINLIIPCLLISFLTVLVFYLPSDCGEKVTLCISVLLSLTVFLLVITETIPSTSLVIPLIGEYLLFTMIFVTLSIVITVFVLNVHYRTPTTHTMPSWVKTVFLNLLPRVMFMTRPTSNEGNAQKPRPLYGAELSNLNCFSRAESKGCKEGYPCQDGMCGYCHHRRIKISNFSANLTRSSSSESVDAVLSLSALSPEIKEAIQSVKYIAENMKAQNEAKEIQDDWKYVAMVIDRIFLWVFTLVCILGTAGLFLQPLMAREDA

Broadly, the IC50 is the point on the concentration scale where inhibition reaches its midpoint. By Ki is commonly meant the equilibrium dissociation constant of an inhibitor or competing ligand from its target. The low end stands for tighter binding, the high end for weaker binding. By Emax is commonly meant the size of the effect at its maximum, as opposed to the concentration needed. What is called EC50 is the concentration at which the effect is half-maximal. Turning to `c1ccc(C(c2ccccc2)C2CN3CCC2CC3)cc1` (stereo not given), the inhibition entry in [1] was “Active”. Besides, the figures for the IC50 in assay [2] and in assay [7] were 400 nM and 200 nM, respectively. Moreover, the results for the Activity in [3], in assay [4] and in assay [5] were 7%, 2% and 0.5%, respectively. Also, affinity in [6] was put at a Ki of 1500 nM. Also, the Emax in assay [8] is 14%. The EC50 in assay [9] was above 10000 nM.
In the case of `C(CN1CCCCC1)=C(c1ccccc1)c1ccccc1`, the IC50 in assay [10] is 372 nM; in assay [11] it was 75.9 nM; in assay [2], 380 nM; in assay [7], 100 nM. Moreover, the inhibition entry in [1] is “inactive”. Further, the Activity in assay [3] amounted to 0.6%; in [4], 0.7%; in [5], 0.5%. Moreover, the Ki in assay [6] turned out to be 2200 nM. Further, in assay [8], the Emax is 31%. The EC50 in [9] was above 10000 nM.
Consider `c1ccc(C[N+]23CCC(CC2)C(C(c2ccccc2)c2ccccc2)C3)cc1` (stereo not given), for which the inhibition result in assay [1] is “inactive”. The IC50 amounted to 600 nM in assay [2] and 80 nM in assay [7]. In addition, the Activity in [3] is 0.4%; in assay [4], 1%; in assay [5], 0.5%. This compound also gave a Ki in assay [6] of 2300 nM. For the same compound, the Emax in assay [8] stood at 10%. In addition, in [9], the EC50 worked out at 9000 nM.
As to `c1ccc(C(c2ccccc2)[N+]23CCN(CC2)CC3)cc1`, the results for the Activity in [3], in assay [4] and in [5] were 0.5%, 0.7% and 1%, respectively. The compound further displayed a Ki in [6] of 8500 nM. For the same compound, in [7], the IC50 came to 15000 nM. Further, the Emax in assay [8] is below 10%.
In the case of `N#CC(c1ccccc1)C1CN2CCC1CC2` (stereo not given), the Activity worked out at 6% in assay [3], 2% in assay [4] and 1% in assay [5]. Also, the Ki in [6] turned out to be 2100 nM. Moreover, the IC50 in [7] was 23000 nM. Besides, in assay [8], the Emax was below 10%.
Take `C(=C1/CN2CCC1CC2)/c1cccnc1`: the values for the Activity in assay [3], in assay [4] and in [5] were 56%, 22% and 5%, respectively. In [6], this compound came in with a Ki of 1600 nM. In assay [7], the IC50 was 10000 nM. In [8], the Emax is 31%. For the same compound, the EC50 in assay [9] was determined as 2000 nM.
For the compound `C(=C1/CN2CCC1CC2)/c1ccccc1`, the values for the Activity in [3], in assay [4] and in assay [5] were 7%, 2% and 1%, respectively. This compound also returned a Ki in [6] of 2100 nM. Also, the IC50 in assay [7] worked out at 6000 nM. Further, in assay [8], the Emax amounted to 25%. The EC50 in assay [9] came out at 3000 nM.

The values are drawn from ChEMBL document CHEMBL2331086, “Pharmacological properties and predicted binding mode of arylmethylene quinuclidine-like derivatives at the α3β4 nicotinic acetylcholine receptor (nAChR)” (Bioorg Med Chem Lett, 2013).
